pIC50: −log10 of the molar value.

The term pIC50 denotes the negative decadic logarithm of the IC50, by convention in mol/L.

In this assay the target is T1, Tyrosine-protein phosphatase non-receptor type 1 (Homo sapiens, UniProt P18031).
T1 sequence (P18031 whole entry): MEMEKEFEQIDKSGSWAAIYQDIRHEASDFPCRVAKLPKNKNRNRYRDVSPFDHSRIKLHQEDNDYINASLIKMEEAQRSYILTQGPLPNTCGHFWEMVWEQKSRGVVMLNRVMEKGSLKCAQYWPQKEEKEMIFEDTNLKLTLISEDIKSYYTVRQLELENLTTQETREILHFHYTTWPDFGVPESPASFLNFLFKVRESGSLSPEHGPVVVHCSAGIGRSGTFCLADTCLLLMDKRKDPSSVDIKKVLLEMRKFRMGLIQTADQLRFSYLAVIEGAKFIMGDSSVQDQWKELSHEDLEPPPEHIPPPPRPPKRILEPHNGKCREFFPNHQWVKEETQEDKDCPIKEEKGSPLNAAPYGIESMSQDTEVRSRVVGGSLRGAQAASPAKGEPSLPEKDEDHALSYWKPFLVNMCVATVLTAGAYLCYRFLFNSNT
Nature of the assay: Inhibition of human recombinant PTP1B.
With `COc1cc([C@@H]2CC(=O)c3ccc(O)cc3O2)cc(CC=C(C)C)c1O`, the pIC50 is 4.72.

In the case of `CC(C)=CCc1cc(-c2cc(=O)c3c(O)cc(O)cc3o2)ccc1O`, the negative logarithm of the IC50 (pIC50) was 4.57.

With `COc1cc([C@@H]2CC(=O)c3c(O)cc(O)cc3O2)cc(CC=C(C)C)c1O` [ABYSSININ II], the negative-log IC50 (pIC50) is 4.76.

With `COc1cc(C2CC(=O)c3c(O)cc(O)cc3O2)cc2c1OC(C)(C)C=C2` (stereo not drawn) [ABYSSININ I], the pIC50 is 4.74.

On to `C=C(C)C(O)Cc1cc([C@@H]2CC(=O)c3c(O)cc(O)cc3O2)cc(CC=C(C)C)c1O` (stereo partly drawn) [ABYSSINOFLAVANONE VII], for which the pIC50 is 4.80.

For the compound `CC(C)=CCc1cc([C@@H]2CC(=O)c3c(O)cc(O)cc3O2)cc2ccoc12` [ABYSSINOFLAVANONE VI], the pIC50 is 4.72.

Turning to `CC1(C)C=Cc2cc([C@@H]3CC(=O)c4c(O)cc(O)cc4O3)ccc2O1` [ABYSSINOFLAVONE V], the pIC50 is below 4.22.

As for `CC(C)=CCc1cc(/C=C/C(=O)c2ccc(O)cc2O)cc(CC=C(C)C)c1O` [ABYSSINONE VI], the negative logarithm of the IC50 (pIC50) was 4.69.

With `CC(C)=CCc1cc(/C=C/C(=O)c2ccc(O)cc2O)ccc1O` [LICOAGROCHALCONE A], the pIC50 was 4.77.

With `CC(C)=CCc1cc([C@@H]2CC(=O)c3c(O)cc(O)cc3O2)c(CC=C(C)C)c(O)c1O` [SIGMOIDIN A], the pIC50 was 4.84.

As for `CC(C)=CCc1cc([C@@H]2CC(=O)c3c(O)cc(O)cc3O2)cc(O)c1O` [SIGMOIDIN B], the pIC50 is 4.71.

With `CC1(C)C=Cc2cc([C@@H]3CC(=O)c4c(O)cc(O)cc4O3)cc(O)c2O1` [SIGMOIDIN C], the negative logarithm of the IC50 (pIC50) was below 4.22.

In the case of `CC(C)=CCc1c([C@H]2CC(=O)c3c(O)cc(O)cc3O2)cc2c(c1O)OC(C)(C)C=C2` [SIGMOIDIN F], the negative-log IC50 (pIC50) is 4.85.

The record behind these values is ChEMBL document CHEMBL1143674, “Isoprenylated flavonoids from the stem bark of Erythrina abyssinica” (J Nat Prod, 2007).
